From paper PMC11255867 (Protein Science : A Publication of the Protein Society, 2024)

Target: T1, Gaussia luciferase (GLuc) (Gaussia princeps (in: crustaceans), UniProt Q9BLZ2)
T1 sequence (Q9BLZ2 18-185): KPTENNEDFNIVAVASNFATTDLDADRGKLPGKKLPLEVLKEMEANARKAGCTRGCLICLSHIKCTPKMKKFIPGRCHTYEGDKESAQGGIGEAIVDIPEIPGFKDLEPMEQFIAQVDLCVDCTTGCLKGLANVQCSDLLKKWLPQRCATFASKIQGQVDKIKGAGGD
Assay: SDS-PAGE adduct formation
Type: biochemical
Settings: suicide inhibitor, covalent; oxidized without light; 20-fold molar excess, up to 24 h; 50 mM Tris-HCl pH 8.0

Compound: O=c1c(Cc2ccco2)nc2c(Cc3ccccc3)[nH]c(-c3ccccc3)cn1-2 [furimazine]
- SDS-PAGE adduct formation; loss of luminescence with coelenterazine: FRZ is a suicide inhibitor of GLuc as it does not produce light with GLuc
